Structures are written as SMILES.

The subject of assay [1] is Phospholipase C (Bacillus cereus). As to the kind of experiment: Compound was evaluated for its […] activity against phospholipase C from Bacillus cereus.
Assay [2] has the same test system. As to the kind of experiment: Critical Micellar Concentration for the compound was calculated for phospholipase C from Bacillus cereus.

`CCCCCC(=O)OCC(COP(=O)(O)OCCC(C)(C)C)OC(=O)CCCCC` (stereo not drawn) had a k cat in assay [1] of 5.2 s⁻¹. Besides, the CMC in assay [2] was 9.5 mM. As for `CCCCCC(=O)OCC(COP(=O)([O-])OCC[N+](C)(C)C)OC(=O)CCCCC` (stereo not drawn), in assay [1], the k cat worked out at 1000 s⁻¹.
